≈ marks a conversion by molar mass, not a printed value.
Assay: Toxicity against brine shrimp
Assay type: organism-based
Conditions: artemia, in vivo

For C=C1C(=O)O[C@H]2[C@H]1CC[C@@]1(C)[C@@H](O)C=C[C@@]3(C)O[C@]231 [RATIBINOLIDE II], the LC50 was 69.5 µg/mL (≈ 265 µM).

— ChEMBL document CHEMBL1158982, “Chemical studies on Mexican plants used in traditional medicine, XXI. Ratibinolide II, a new sesquiterpene lactone from Ratibida latipalearis” (J Nat Prod, 1991)
